Source: paper PMC12198407, “Preclinical and first-in-human of purinostat mesylate, a novel selective HDAC I/IIb inhibitor, in relapsed/refractory multiple myeloma and lymphoma” (Signal Transduction and Targeted Therapy, 2025)
“Also recorded” adds a separate entry of the source. Where two headings read alike, the source gives them in different places.

Experiments:
[1] = Plasma level in wild-type mice; assay type: in vivo; settings: single i.v. 5 mg/kg, listed as Purinostat Mesylate
Experimental: The mean residence times (MRT) were 6.00 ± 1.00 h, 24.8 ± 1.03 h, and 23.4 ± 3.59 h, respectively. […] However, in Ighmyc mice, the plasma drug concentration after the same duration was 7.11 ± 3.15 ng/mL. […] The pharmacokinetic characteristics support the notion that spaced dosing of the drug can still maintain favorable pharmacodynamic outcomes.

[2] = Chronic toxicity test, intravenous; assay type: in vivo, Beagle dogs
Experimental: In this study, the low, medium, and high dose groups were set at 0.3, 1, and 3 mg/kg, respectively. The excipient was set at a high dose of 45 mg/kg. In the low dose group, occasional vomiting was observed; in the medium dose group, symptoms included vomiting, loose stools, and dark red stools; in the high dose group, symptoms included vomiting and dark red stools. Four dogs (4/10, 2 females and 2 males) died between days 13 and 26 of the experiment. […] The primary toxic target organs or systems included the immune system (spleen, thymus, lymph nodes), digestive system (esophagus, liver, pancreas, intestine), kidneys, heart, lungs, trachea, testes, bone marrow, and injection site. There was a dose-dependent relationship, and recovery was observed during the recovery period. The highest no serious toxicity dose (HNSTD) was determined to be 1 mg/kg.

[3] = Metabolites in dog plasma; assay type: in vivo, Beagle dogs; settings: male and female dogs
Source text: Four metabolites of Purinostat Mesylate were detected in plasma samples from both male and female dogs, namely M4 (MW = 636.66, unknown product), M8 (MW = 474.52, reduction product), M13 (MW = 505.54, methylation product), and M16 (MW = 475.50, hydrolysis product). The primary metabolic pathways involved hydrolysis, methylation, and reduction, with no significant gender differences observed. The parent compound, Purinostat Mesylate, accounted for more than 35% of the UV absorption peak area in the plasma samples from both male and female dogs, indicating it is one of the major components. Purinostat Mesylate is primarily metabolized in the plasma of male and female dogs through hydrolysis, methylation, and reduction pathways. A possible metabolic pathway structure diagram is shown below: […]

Raji-luc = assay: Luciferase substrate viability assay; assay type: cell-based, human
[4] = test system: class IIb HDAC substrate α-tubulin in SUDHL-6, Daudi, Raji, Ramos, RPMI-8226; assay: Cellular acetylation of α-tubulin; assay type: cell-based, human
Source text: The results of these cell experiments were consistent with the in vitro enzyme activity assay results.

Ramos-luc = assay: Luciferase substrate viability assay; assay type: cell-based, human
HUVEC = assay: Proliferation, MTT or Alamar Blue; assay type: cell-based; settings: Homo sapiens, read-out: IC50, normal HUVEC cells
HDAC I/IIb = test system: HDAC I/IIb; design: method as in PMID 27186676, PMID 31439580; settings: range over isoforms; read-out: IC50 against HDAC I/IIb; cited from earlier work
[5] = test system: mouse BM-derived osteoclasts (M-CSF, RANKL); assay: Osteoclast formation, TRAP staining; assay type: cell-based, C57BL/6 mice; settings: M-CSF and RANKL induced
Experimental: Primary mouse BM cells were collected from 6-to-8 weeks C57BL/6 mice, and 1.0 × 10^5 cells were seeded into 48-well plates with α-MEM containing 10% FBS and 40 ng/mL M-CSF (PeproTech, catalog # 315-02) for 3 days to recruit macrophage and then induce osteoclast differentiation plus 50 ng/mL RANKL (R&D, catalog # 462-TEC-010/CF) with or without indicated concentration of PM for 4 days. Half-media changes were carried out every 2 days. The TRAP staining kit was purchased from Sigma-Aldrich (CS0704), and TRAP staining was performed according to the kit instructions.

Solubility of the API = assay type: physicochemical
CYP2D6 = molecular target: T1, CYP2D6 (Homo sapiens, UniProt P10635); assay: CYP inhibition, human liver microsomes; assay type: in vitro ADME
T1 construct: human liver microsomal cytochrome P450 isoenzymes; from tissue; host or cells: human liver microsomes

[6] = Bone marrow micronucleus test; assay type: in vivo, NIH mice; settings: 20, 40, 60, 80 mg/kg i.v. daily for 3 days
Experimental: In this experiment, 90 SPF-grade NIH mice (half male and half female) were randomly divided into 7 groups: a negative control group (0.9% sodium chloride injection, intravenous injection, 10 mL/kg), an excipient control group (blank formulation, intravenous injection, 10 mL/kg), a positive control group (cyclophosphamide 40 mg/kg, intraperitoneal injection, 10 mL/kg), and four groups for intravenous injection of Purinostat Mesylate at low, medium, high, and highest doses (20, 40, 60, and 80 mg/kg, intravenous injection, 10 mL/kg). The negative control and positive control groups each consisted of 20 mice, while the other groups each consisted of 10 mice, with an equal number of males and females. Mice in each group were administered the specified doses once daily for 3 consecutive days, while the positive control group received only a single dose. Twenty to twenty-four hours after the last administration, all mice in each group were euthanized, and femoral bone marrow smears were prepared. The smears were stained with Giemsa and observed under an oil immersion microscope. For each mouse, 4000 polychromatic erythrocytes (PCEs) were counted to calculate the micronucleus incidence (‰), while 500 bone marrow erythrocytes were counted to determine the ratio of polychromatic erythrocytes to total erythrocytes.

[7] = test system: hematological tumor cells; assay: Proliferation, MTT or Alamar Blue; assay type: cell-based; settings: Homo sapiens

T1 sequence (P10635 whole entry): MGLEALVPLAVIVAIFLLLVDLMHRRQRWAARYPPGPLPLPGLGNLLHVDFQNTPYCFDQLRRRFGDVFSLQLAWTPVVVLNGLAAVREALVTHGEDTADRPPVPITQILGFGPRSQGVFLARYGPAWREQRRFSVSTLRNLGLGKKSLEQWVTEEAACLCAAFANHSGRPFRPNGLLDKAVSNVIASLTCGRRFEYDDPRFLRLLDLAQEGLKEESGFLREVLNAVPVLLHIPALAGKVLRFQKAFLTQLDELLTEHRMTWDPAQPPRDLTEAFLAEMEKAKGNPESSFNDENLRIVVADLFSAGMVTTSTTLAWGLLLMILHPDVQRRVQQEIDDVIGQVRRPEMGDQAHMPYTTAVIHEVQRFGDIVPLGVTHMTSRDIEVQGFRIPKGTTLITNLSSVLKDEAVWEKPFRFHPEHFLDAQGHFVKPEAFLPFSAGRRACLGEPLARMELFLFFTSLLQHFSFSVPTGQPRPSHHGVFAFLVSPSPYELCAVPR
Source text for in vivo: According to the "Guidelines for the Clinical Trial of Antineoplastic Drugs," for cytotoxic agents, the maximum recommended starting dose (MRSD) can be determined as one-tenth of the maximum tolerated dose (MTD) in rodent studies or one-sixth of the MTD in non-rodent species, expressed in mg/m². For some non-cytotoxic antineoplastic agents, due to their relatively lower toxicity, the starting dose for single administration in Phase I clinical trials can be calculated using one-fifth of the No Observed Adverse Effect Level (NOAEL) from non-rodent studies, or higher.
The Pharmacological Active Dose (PAD) based on mice is used to predict the minimum dose that may produce the expected pharmacological effect in humans.

**Q.** For `CN(Cc1nc2c(N3CCOCC3)nc(-c3ccc(N)cc3)nc2n1C)c1ncc(C(=O)NO)cn1.CS(=O)(=O)O` [PM, 2-(((2-(4-Aminophenyl)-9-methyl-6-(4-morpholinyl)-9H-purine-8-yl)methyl)methylamino)-N-hydroxy-5-pyrimidine-carboxamide Mesylate], which “plasma drug concentration at 24 hours” value [1] is on record?
**A.** The value was “no drug concentration was detected in the plasma at 24 hours; also recorded: no drug concentration was detectable in plasma after 24 hours; also recorded: undetectable”.

**Q.** What about the NOAEL ([2]; both sexes, beagle, dog, in vivo, intravenous) of the same compound?
**A.** Its NOAEL is under 0.3 mg/kg.

**Q.** What about the “highest no serious toxicity dose (HNSTD)” value ([2]; both, beagle, dog, in vivo, intravenous) of the same compound?
**A.** The value was 1 mg/kg.

**Q.** What about the dogs that died ([2]; high dose 3 mg/kg, days 13 to 26) of the same compound?
**A.** Its dogs that died is 4/10.

**Q.** And the “prolongation of QTc” value ([2]; high dose group, male dogs)?
**A.** The value was 9.6%.

**Q.** And the “share of UV absorption peak area in plasma samples” value [3]?
**A.** Its value is “more than 35%”.

**Q.** And the NOAEL (in vivo; beagle, dog)?
**A.** Its NOAEL is under 0.3 mg/kg.

**Q.** And the NOAEL (in vivo; rat)?
**A.** The NOAEL was under 3 mg/kg.

**Q.** And the “time until effect detectable” value (Raji-luc)?
**A.** The value was 36 h.

**Q.** And the “concentration inducing increased acetylation of α-tubulin” value [4]?
**A.** The value was 3 to 10 nM.

**Q.** And the “time until effect detectable” value (Ramos-luc)?
**A.** Its value is 24 h.

**Q.** What about the IC50 (HUVEC) of the same compound?
**A.** Its IC50 is 68.9 nM.

**Q.** And the IC50 (HDAC I/IIb)?
**A.** Its IC50 is 0.81 to 11.5 nM.

**Q.** What about the “mature osteoclast formation (TRAP staining)” value [5] of the same compound?
**A.** The value was “obviously suppressed mature osteoclast cells formation”.

**Q.** And the Solubility (Solubility of the API; 0.1 mol/L hydrochloric acid solution)?
**A.** Its Solubility is “practically insoluble”.

**Q.** And the Solubility (Solubility of the API; 0.1 mol/L sodium hydroxide solution)?
**A.** Its Solubility is “very slightly soluble”.

**Q.** What about the Solubility (Solubility of the API; dimethyl sulfoxide) of the same compound?
**A.** Its Solubility is “soluble”.

**Q.** And the Solubility (Solubility of the API; dimethylformamide)?
**A.** Its Solubility is “slightly soluble”.

**Q.** What about the Solubility (Solubility of the API; ethanol, ethyl acetate, or chloroform) of the same compound?
**A.** Its Solubility is “practically insoluble”.

**Q.** And the Solubility (Solubility of the API; methanol)?
**A.** The Solubility was “very slightly soluble”.

**Q.** And the IC50 (CYP2D6)?
**A.** Its IC50 is over 10000 nM.

**Q.** What about the “bone marrow micronucleus test result” value [6] of the same compound?
**A.** The value was “negative”.

**Q.** What about the IC50 ([7]; read-out: IC50, hematological tumor cells) of the same compound?
**A.** The IC50 was under 10 nM.

**Q.** And the IC50 ([7]; some cell lines, read-out: IC50, hematological tumor cell lines)?
**A.** The IC50 was under 1 nM.
